# Source: publication PMC9697930 (International Journal of Molecular Sciences, 2022)
# Tests used:
# ABCB1 [1] = biological target: T1, ABCB1 (Homo sapiens, UniProt P08183); conditions: 12-days exposure; MCF-10A; cited from earlier work
# ABCG2 [2] = conditions: 12-days exposure; MCF-10A; cited from earlier work
# ABCG2 [3] = conditions: Abcg2-knockout mice, MDCKII-ABCG2 cells; cited from earlier work
# ABCB1 [4] = biological target: T1, ABCB1; assay: Accumulation assay with daunorubicin in MDCKII-ABCB1 cells; assay type: cell-based; design: expressed in transfected cells; host or cells: MDCKII (canine kidney) subline MDCKII-ABCB1, gift of Dr. Alfred Schinkel; conditions: read-out: ABCB1 inhibition IC50
# Description: (§1) The conduction of accumulation assays followed the slightly changed protocol described previously. In the study, MDCKII-par, MDCKII-ABCB1, MDCKII-ABCC1, MDCKII-ABCG2, and primary explants were seeded into 12-well plates in variant densities, 22.0 × 10^4, 15.0 × 10^4, 25.0 × 10^4, 22.0 × 10^4, and 15.0 × 10^4 cells/well, respectively. After 24 h incubation, two washing steps with 1 × PBS were applied. […] The cells were then incubated under standard conditions for 30 min. Next steps included placing the plates on ice, washing the cells with ice-cold 1 × PBS two-times, and detaching the cells with the ice-cold 10 × trypsin without phenol red. Following trypsinization, cells were resuspended in 1 × PBS containing 2% FBS. Subsequently, cell suspensions were transferred into the test tubes and kept on ice. The fluorescence in cells was measured immediately after the collection of their suspensions using flow cytometer Sony SA3800 Spectral Cell Analyzer (Sony Biotechnology, San Jose, CA, USA). SA3800 software (Sony Biotechnology, San Jose, CA, USA) was used to evaluate the data.
# ABCC1 = ABCC1 (Homo sapiens, UniProt P33527); conditions: 12-days exposure; MCF-10A; cited from earlier work
# [5] = in-human mass-balance study; cited from earlier work
# A431-ABCC1 = assay: MTT proliferation / drug combination assay; assay type: cell-based; conditions: Homo sapiens, comparative MTT, 48 h, read-out: antiproliferative IC50
# Description: (§2) The viability MTT assay was employed in several experimental sets, including induction studies, comparative viability assays, and drug combinations. First, 1.3 × 10^4 (MDCKII sublines), 1.2 × 10^4 (A431 sublines), 1.5 × 10^4 (MCF-7), and 1.0 × 10^4 (primary NSCLC explants) cells were seeded in 96-well plates. After seeding, cells were left to refresh in incubator for 24 h. Secondly, the medium was removed, and the serial dilutions of the drugs or drug combinations were added to the cells. Next to these variants, a medium with 40% DMSO and vehicle-containing media were tested as nonviable and unaffected viability controls, respectively. After an additional 48 h of incubation, the cells were washed with 1 × PBS and then treated with 1 mg/mL MTT solution in Opti-MEM. Subsequently, cells were incubated for 60 min under standard conditions. After MTT treatment, generated formazan crystals were solubilized with DMSO for 10 min. Wavelengths of 570 nm (formazan) and 690 nm (background) were used for absorbance measurements using a microplate reader Infinite 200 Pro NanoQuant (Tecan, Männedorf, Switzerland).
# (§3) In vitro cell lines (MDCKII and A431) and primary NSCLC explants were seeded (see densities above) in 96-well plates and incubated for 24 h. […] Combined cells were incubated with the tested compounds for 48 h, and subsequently, MTT assay was performed to assess cell viability as described above. Besides IC50-shift analysis, CompuSyn 3.0.1 software (ComboSyn Inc., Paramus, NJ, USA) was used for the additional analysis of obtained data. This software works with the algorithms of the combination index (CI) method of Chou–Talalay, which is frequently used for the accurate quantification of drug combinations’ outcomes. According to the CI method principle, the combination effects were separated into three categories, including synergistic (CI < 0.9), additive (CI between 0.9–1.1), or antagonistic (CI > 1.1) ones.
# A431-ABCG2 = assay: MTT proliferation / drug combination assay; assay type: cell-based; conditions: Homo sapiens; A431-ABCG2; comparative MTT, 48 h; read-out: antiproliferative IC50
# Description: as §2, §3
# A431-parent = assay: MTT proliferation / drug combination assay; assay type: cell-based; conditions: Homo sapiens, A-431; A431 parental; comparative MTT, 48 h; read-out: antiproliferative IC50
# Description: as §2, §3
# CYP2C8 = biological target: T2, CYP2C8 (Homo sapiens, UniProt P10632); assay: Incubation assay with recombinant CYP (Vivid kit); assay type: biochemical; conditions: recombinant enzyme, Vivid substrate
# T2 construct: purchased
# Description: (§4) Possible interactions of examined PARPi with human CYP3A4, CYP2C8, CYP2D6, CYP1A2, CYP2B6, CYP2C9, CYP2C19, and CYP3A5 were evaluated using commercial Vivid CYP450 Screening Kits. […] CYP isoenzymes were mixed with the NADPH-regeneration system, and resulting solutions were added to the wells. After 10 min preincubation, the solution of NADP ^+ and a particular Vivid substrate were added to start the CYP-catalyzed reaction. Fluorescence corresponding to the levels of produced metabolites was detected using the microplate reader Infinite […] (Tecan, Männedorf, Switzerland) in a kinetic mode (1-minute intervals). The data from the 15 min interval were selected to analyze the results.
# CYP2C9 = biological target: T3, CYP2C9 (Homo sapiens, UniProt P11712); assay: Incubation assay with recombinant CYP (Vivid kit); assay type: biochemical; conditions: recombinant enzyme, Vivid substrate
# T3 construct: purchased
# Description: as §4
# CYP1A2 = biological target: T4, CYP1A2 (Homo sapiens, UniProt P05177); assay: Incubation assay with recombinant CYP (Vivid kit); assay type: biochemical; conditions: recombinant enzyme, Vivid substrate
# T4 construct: purchased
# Description: as §4
# CYP2B6 = biological target: T5, CYP2B6 (Homo sapiens, UniProt P20813); assay: Incubation assay with recombinant CYP (Vivid kit); assay type: biochemical; conditions: recombinant enzyme, Vivid substrate
# T5 construct: purchased
# Description: as §4
# CYP2D6 = biological target: T6, CYP2D6 (Homo sapiens, UniProt P10635); assay: Incubation assay with recombinant CYP (Vivid kit); assay type: biochemical; conditions: recombinant enzyme, Vivid substrate
# T6 construct: purchased
# Description: as §4
# CYP3A5 = biological target: T7, CYP3A5 (Homo sapiens, UniProt P20815); assay: Incubation assay with recombinant CYP (Vivid kit); assay type: biochemical; conditions: recombinant enzyme, Vivid substrate
# T7 construct: purchased
# Description: as §4
# CYP2C19 = biological target: T8, CYP2C19 (Homo sapiens, UniProt P33261); assay: Incubation assay with recombinant CYP (Vivid kit); assay type: biochemical; conditions: recombinant enzyme, Vivid substrate
# T8 construct: purchased
# Description: as §4
# ABCG2 [6] = biological target: T9, ABCG2 (Homo sapiens, UniProt Q9UNQ0); assay: Accumulation assay with mitoxantrone in MDCKII-ABCG2 cells; assay type: cell-based; conditions: normalized to Ko143, read-out: ABCG2 inhibition IC50
# T9 construct: expressed in transfected cells; host or cells: MDCKII (canine kidney) subline MDCKII-ABCG2, gift of Dr. Alfred Schinkel
# Description: as §1
# T1 sequence (P08183 whole entry): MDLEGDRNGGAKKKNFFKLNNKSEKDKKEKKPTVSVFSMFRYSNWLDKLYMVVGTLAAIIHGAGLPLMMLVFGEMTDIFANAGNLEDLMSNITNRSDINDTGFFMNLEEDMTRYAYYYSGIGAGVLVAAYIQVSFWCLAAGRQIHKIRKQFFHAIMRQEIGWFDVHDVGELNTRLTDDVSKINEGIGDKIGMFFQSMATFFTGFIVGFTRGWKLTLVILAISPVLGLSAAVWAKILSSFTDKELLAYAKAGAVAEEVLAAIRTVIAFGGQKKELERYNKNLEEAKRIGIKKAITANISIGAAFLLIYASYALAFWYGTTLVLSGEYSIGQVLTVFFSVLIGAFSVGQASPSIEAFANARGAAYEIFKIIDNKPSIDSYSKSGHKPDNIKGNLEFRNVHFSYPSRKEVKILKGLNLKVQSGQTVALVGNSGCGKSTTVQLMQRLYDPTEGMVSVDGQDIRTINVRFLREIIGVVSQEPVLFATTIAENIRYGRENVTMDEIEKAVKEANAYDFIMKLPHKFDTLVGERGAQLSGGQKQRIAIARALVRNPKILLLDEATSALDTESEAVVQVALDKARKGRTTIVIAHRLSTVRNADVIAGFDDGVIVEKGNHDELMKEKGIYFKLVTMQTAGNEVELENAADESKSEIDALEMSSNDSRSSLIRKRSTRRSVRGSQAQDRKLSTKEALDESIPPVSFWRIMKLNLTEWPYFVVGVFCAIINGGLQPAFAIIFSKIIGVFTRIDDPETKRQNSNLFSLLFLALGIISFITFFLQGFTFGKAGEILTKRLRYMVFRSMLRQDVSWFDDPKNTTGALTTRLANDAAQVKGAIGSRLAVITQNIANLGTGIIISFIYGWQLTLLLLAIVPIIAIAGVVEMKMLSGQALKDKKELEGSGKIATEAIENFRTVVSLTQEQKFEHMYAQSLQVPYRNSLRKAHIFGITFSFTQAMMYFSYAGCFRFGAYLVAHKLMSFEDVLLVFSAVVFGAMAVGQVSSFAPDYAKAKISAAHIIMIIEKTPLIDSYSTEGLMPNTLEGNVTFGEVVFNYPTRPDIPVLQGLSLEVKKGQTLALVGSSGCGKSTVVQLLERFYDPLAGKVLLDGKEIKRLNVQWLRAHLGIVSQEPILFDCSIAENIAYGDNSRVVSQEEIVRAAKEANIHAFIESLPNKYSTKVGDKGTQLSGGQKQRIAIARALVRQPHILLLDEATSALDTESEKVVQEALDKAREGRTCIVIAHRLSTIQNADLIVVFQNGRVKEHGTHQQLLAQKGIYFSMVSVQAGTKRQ
# Sequence of ABCC1 (P33527 whole entry): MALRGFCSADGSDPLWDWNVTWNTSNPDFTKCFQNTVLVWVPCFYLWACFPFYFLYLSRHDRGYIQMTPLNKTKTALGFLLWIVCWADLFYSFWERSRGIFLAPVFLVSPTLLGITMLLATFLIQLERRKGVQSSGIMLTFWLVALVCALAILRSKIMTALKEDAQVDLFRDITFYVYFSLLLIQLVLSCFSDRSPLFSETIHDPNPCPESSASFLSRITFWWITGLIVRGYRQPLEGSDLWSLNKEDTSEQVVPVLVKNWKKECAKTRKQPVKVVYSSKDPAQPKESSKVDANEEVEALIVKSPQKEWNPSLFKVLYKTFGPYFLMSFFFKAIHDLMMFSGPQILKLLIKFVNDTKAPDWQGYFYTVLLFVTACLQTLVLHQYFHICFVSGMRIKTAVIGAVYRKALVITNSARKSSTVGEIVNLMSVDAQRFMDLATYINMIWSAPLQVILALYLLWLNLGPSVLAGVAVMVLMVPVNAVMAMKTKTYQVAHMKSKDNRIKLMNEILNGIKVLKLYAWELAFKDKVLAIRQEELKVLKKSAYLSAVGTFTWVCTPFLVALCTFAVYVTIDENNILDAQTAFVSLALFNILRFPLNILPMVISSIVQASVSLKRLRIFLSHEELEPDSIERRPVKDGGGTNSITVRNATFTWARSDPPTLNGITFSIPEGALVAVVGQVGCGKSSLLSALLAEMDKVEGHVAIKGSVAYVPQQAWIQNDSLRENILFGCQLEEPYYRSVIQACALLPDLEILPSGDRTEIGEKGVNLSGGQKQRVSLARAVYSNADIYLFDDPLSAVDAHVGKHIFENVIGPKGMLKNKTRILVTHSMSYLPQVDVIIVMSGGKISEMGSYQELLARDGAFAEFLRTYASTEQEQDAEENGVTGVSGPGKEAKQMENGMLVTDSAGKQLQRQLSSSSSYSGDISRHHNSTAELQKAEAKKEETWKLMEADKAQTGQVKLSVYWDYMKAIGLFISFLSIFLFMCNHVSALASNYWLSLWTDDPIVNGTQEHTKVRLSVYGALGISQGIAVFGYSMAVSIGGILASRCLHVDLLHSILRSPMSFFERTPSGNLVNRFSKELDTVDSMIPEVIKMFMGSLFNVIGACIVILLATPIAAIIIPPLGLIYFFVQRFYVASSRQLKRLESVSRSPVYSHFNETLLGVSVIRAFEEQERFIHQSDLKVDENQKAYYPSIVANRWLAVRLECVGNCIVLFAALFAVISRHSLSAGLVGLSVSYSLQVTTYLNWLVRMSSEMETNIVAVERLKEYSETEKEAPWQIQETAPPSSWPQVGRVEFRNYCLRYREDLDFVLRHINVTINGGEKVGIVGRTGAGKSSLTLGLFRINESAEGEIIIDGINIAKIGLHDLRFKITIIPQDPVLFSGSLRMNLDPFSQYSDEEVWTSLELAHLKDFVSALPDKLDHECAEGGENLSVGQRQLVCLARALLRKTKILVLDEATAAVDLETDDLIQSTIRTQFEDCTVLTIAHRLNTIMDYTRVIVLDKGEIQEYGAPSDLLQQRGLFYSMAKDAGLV
# T4 sequence (P05177 whole entry): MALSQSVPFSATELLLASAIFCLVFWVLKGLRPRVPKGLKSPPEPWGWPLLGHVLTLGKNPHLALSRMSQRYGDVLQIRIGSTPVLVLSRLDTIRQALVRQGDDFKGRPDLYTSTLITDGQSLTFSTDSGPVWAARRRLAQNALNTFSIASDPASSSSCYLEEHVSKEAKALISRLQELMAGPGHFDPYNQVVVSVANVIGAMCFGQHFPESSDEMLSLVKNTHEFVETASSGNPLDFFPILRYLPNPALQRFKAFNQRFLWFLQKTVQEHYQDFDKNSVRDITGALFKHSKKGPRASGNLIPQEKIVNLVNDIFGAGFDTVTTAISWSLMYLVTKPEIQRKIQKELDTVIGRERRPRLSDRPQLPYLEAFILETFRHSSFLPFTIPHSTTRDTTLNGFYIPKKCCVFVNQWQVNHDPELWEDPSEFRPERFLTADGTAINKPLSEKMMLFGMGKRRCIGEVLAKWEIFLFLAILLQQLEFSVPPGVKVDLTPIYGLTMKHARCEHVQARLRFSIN
# T7 sequence (P20815 whole entry): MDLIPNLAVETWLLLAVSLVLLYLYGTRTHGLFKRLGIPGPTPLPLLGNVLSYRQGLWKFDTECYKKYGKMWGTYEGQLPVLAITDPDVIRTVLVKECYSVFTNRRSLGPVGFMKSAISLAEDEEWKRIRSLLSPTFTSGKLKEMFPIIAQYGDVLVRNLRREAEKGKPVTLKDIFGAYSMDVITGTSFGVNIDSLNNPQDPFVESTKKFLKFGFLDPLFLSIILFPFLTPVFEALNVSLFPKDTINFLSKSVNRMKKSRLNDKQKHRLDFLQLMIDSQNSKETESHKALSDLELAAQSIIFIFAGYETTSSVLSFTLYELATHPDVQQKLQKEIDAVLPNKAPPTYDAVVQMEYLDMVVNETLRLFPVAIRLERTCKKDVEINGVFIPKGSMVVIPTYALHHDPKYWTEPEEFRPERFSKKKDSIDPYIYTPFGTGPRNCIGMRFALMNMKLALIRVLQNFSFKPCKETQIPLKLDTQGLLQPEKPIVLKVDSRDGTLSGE
# T5 sequence (P20813 whole entry): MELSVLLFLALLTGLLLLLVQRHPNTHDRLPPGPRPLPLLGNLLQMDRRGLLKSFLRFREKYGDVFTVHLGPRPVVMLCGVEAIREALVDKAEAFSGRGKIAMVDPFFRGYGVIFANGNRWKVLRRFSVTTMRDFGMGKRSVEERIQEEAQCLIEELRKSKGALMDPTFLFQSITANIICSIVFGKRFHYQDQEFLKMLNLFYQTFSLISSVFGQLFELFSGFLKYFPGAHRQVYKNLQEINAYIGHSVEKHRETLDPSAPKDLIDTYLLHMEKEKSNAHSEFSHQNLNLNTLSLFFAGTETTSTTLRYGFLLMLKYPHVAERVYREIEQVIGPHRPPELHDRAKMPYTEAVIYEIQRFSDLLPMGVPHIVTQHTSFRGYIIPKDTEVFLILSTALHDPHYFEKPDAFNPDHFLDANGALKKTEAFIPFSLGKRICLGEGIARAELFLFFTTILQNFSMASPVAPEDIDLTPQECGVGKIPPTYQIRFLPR
# T6 sequence (P10635 whole entry): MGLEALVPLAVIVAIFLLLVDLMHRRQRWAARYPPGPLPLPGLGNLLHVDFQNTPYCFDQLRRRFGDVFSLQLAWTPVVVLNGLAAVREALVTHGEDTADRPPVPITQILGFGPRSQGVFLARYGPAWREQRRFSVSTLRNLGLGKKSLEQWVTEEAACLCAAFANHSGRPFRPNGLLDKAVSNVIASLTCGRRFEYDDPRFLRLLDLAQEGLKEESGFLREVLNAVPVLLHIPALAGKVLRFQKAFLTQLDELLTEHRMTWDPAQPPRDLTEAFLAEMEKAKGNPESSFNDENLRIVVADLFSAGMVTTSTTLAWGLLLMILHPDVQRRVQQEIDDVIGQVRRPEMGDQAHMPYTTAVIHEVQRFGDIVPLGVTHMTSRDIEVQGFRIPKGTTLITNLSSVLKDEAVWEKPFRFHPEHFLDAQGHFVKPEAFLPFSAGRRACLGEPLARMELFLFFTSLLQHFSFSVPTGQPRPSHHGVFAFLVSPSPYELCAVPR
structure (smiles),measurement,setting,value
"Cn1ncnc1[C@H]1c2n[nH]c(=O)c3cc(F)cc(c23)N[C@@H]1c1ccc(F)cc1 [talazoparib, Talazoparib]",effect on ABCB1 mRNA,ABCB1 [1],upregulate
same,effect on ABCB1 protein level,ABCB1 [1],fluctuating (concentration-dependent induction or downregulation)
same,effect on ABCG2 mRNA,ABCG2 [2],upregulate
same,effect on ABCG2 protein level,ABCG2 [2],decreased
same,ABCG2 substrate status,ABCG2 [3],not of ABCG2
same,IC50,ABCB1 [4],> 50 µM
same,effect on ABCC1 mRNA,ABCC1,upregulate
same,effect on ABCC1 protein level,ABCC1,unchanged
same,excretion,[5],a major fraction of the dose is excreted renally and biliary in unchanged form
same,extent of metabolism,[5],minimally metabolized
same,IC50,A431-ABCC1,91.5 µM
same,IC50,A431-ABCG2,91.8 µM
same,IC50,A431-parent,86.8 µM
same,IC50,CYP2C8,> 50 µM
same,IC50,CYP2C9,> 50 µM
same,IC50,CYP1A2,> 50 µM
same,IC50,CYP2B6,> 50 µM
same,IC50,CYP2D6,> 50 µM
same,IC50,CYP3A5,> 50 µM
same,IC50,CYP2C19,> 50 µM
same,IC50,ABCG2 [6],11.2 µM
